According to article PMC5772648, “Targeted NUDT5 inhibitors block hormone signaling in breast cancer cells” (Nature Communications, 2018):
Where two headings read alike, the source gives them in different places. Blank lines part the entries; values can stand above or below the compound they belong to.

What was measured:
human NUDT5 = biological target: T1, human NUDT5 (Homo sapiens, UniProt Q9UKK9); assay: enzyme-coupled malachite green assay (MG assay), ADPR hydrolysis; type: biochemical; settings: for IC50: NUDT5, ADPR substrate
T1 construct: His-tag (N); made in house; host or cells: E. coli BL21 (DE3) R3 pRARE2
Source text: We next sought to develop small molecule NUDT5 inhibitors to further probe the role of NUDT5 in ADPR metabolism. A high-throughput, screening-compatible NUDT5 inhibition assay was established using slight modifications to the aforementioned MG procedure (Fig. 2a)[15],[27]. Briefly, ADPR, NUDT5 and calf intestinal alkaline phosphatase (CIP) were combined in a coupled enzymatic assay, as described in the online methods. In turn, ADPR was hydrolyzed to AMP and R5P by NUDT5, and the released R5P was further degraded to ribose and inorganic phosphate (Pi) by CIP. Free Pi was subsequently detected using the malachite green reagent. The screen was conducted using a combination of the Chemical Biology Consortium of Sweden (CBCS) primary screening set and several commercial libraries from Enamine, TimTec, Maybridge and ChemDiv. In total, ~72 000 distinct chemical entities were screened for their potential inhibition of NUDT5 at a concentration of 10 µM (Supplementary Table 1, Supplementary Fig. 2a, b). Execution of this screening campaign was split between two different occasions. The screening performance in the two screening campaigns was excellent (average z´ factors of 0.87 and 0.85, Supplementary Fig. 2c), resulting in a hit limit as defined by the average and three standard deviations of the library compound responses of 10.1 and 18.4% inhibition, respectively (Supplementary Table 1, Supplementary Fig. 2a, b). This translated to 53 and 475 hits (0.3 and 0.8% hit rate, respectively), yielding 528 total hits from the 2 separate screening occasions.
Activity of NUDT5 and MTH1 with a panel of potential substrates [2-OH-ATP, 2-OH-dATP, 8-oxo-dGDP, GDP and 8-oxo-GTP (Jena Biosciences), 8-oxo-dGTP (TriLink Biotechnologies), dATP (ThermoFisher Scientific), dGTP, GTP and ADPR (Sigma-Aldrich)] was assessed in reaction buffer (100 mM Tris Acetate pH 7.5, 40 mM NaCl, 10 mM Mg Acetate) at 22 °C. For ADPR, alkaline phosphatase from bovine intestinal mucosa (10 U/ml; Sigma-Aldrich) was added as coupled enzyme, while other substrates were coupled to E. coli pyrophosphatase (0.2 U/mL, Sigma-Aldrich). After 30 min incubation with shaking, formed inorganic phosphate was detected by addition of malachite green reagent. Absorbance at 630 nm was read after 15 min incubation with shaking using a Hidex Sense plate reader. The potency of NUDT5 inhibitors was assessed similarly as above (and in the screening campaign) by monitoring ADPR hydrolysis; details are in the Supplementary Information.
Small molecule library composition
The screen for NUDT5 inhibitors was conducted at Chemical Biology Consortium Sweden (www.cbcs.se). Two screening campaigns completed in August 2012 and in March 2013 respectively comprised a combination of in-house and commercially available libraries, amounting to a total of 75679 compounds. The commercial compounds originate from Enamine, TimTec, MayBridge and ChemDiv. The in-house libraries were donated by Biovitrum AB, Sweden (the origin and composition is described previously)2. For long-term storage, the compounds are kept frozen at - 20°C as 10 mM solutions in dimethyl sulfoxide (DMSO) under low humidity conditions in REMP 96 Storage Tube Racks in a REMP Small-Size Store™. To facilitate screening an aliquot of the stock solutions have been transferred to Labcyte 384 LDV plates (LP-0200) to enable dispensing using an Echo 550™ acoustic liquid handler (LabCyte). For both screening campaigns 40 nl of the compound solutions were dispensed directly into columns 1-22 of the 384-well assay plates (Nunc 242757), while columns 23 and 24 were reserved for controls as outlined below. The plates were sealed with a Peelable Aluminium seal (Agilent 24210-001) using a PlateLoc thermal microplate sealer (Agilent) and kept at room temperature until used. The final compound concentration in the screen was 10 µM with a final DMSO concentration of […]
Enzymatic assay applied for screening and hit confirmation […]

[1] = biological target: T2, NUDT5 in intact HL-60 cells (Homo sapiens, UniProt Q9UKK9); assay: intact cell CETSA; type: cell-based; settings: 20 µM, 83 °C
T2 construct: endogenous in cells; host or cells: HL-60
Experimental: For CETSA experiments with cells treated in culture, 1 × 10^6 HL-60 were treated with DMSO (0.1 % v/v final) or 20 µM compound for 3 h at 37 °C and 5% CO2 in a humidified incubator. T47D^WT cells were treated instead with 80 µM TH1659, 15 µM TH5423/5424 and 1.5 µM TH5427. The cells were harvested, washed twice with PBS and resuspended in TBS with protease inhibitors, as above. Heating was identical as before, except that immediately following heating, the cell suspensions were snap frozen in a dry ice/ethanol bath and freeze-thawed, as previously, to lyse cells. Centrifugation at 20 000 × g for 20 min at 4 °C removed cellular debris and protein aggregates, and lysates were prepared for western blotting.

[2] = biological target: T3, NUDT5 in HL-60 cell lysates (Homo sapiens, UniProt Q9UKK9); assay: cell lysate CETSA (HT-CETSA); type: binding; settings: 20 µM, 83 °C
T3 construct: endogenous in cells; host or cells: HL-60
Experimental: Target engagement in cells was determined by the cellular thermal shift assay (CETSA)[29]. Briefly, cell lysate thermal shift assays were performed with 1 × 10^6 HL-60 cells per temperature/condition. Cells were collected and washed once with PBS and resuspended in TBS with protease inhibitor cocktail (Mini cOmplete, EDTA-free, Roche) at 60 µL/1 × 10^6 cells. The cells were then aliquoted and lysed by freeze-thawing three times with 3-min incubations (3x, 3 min.+3 min.) using an ethanol/dry ice bath and water bath at 37 °C. The lysates were then centrifuged at 20,000×g for 20 min at 4 °C to remove cellular debris. Supernatants were then transferred to PCR strip tubes and treated with 0.5 µL DMSO (0.8% v/v final) or 20 µM inhibitor for 20 min at room temperature. Lysates with compounds were heated at the indicated temperature in a Veriti Thermal Cycler (Applied Biosystems) for 3 min, then cooled for another 3 min at room temperature. They were then centrifuged at 20 000 × g for 20 min at 4 °C to pellet protein aggregates and 45 µL was removed and prepared for western blotting analysis.

purified NUDT5 = biological target: T4, purified NUDT5 (Homo sapiens, UniProt Q9UKK9); assay: differential scanning fluorimetry (DSF); type: binding; settings: 20 µM compound; for Tm: DMSO 74; for ΔTm at 20 µM: read-out: shift in melting temperature (Tm)
T4 construct: His-tag (N); made in house; host or cells: E. coli BL21 (DE3) R3 pRARE2
Experimental: Differential scanning fluorimetry (DSF)[5],[47] was performed with 5 µM purified NUDT5, 20 µM NUDT5 inhibitor and 5x Sypro Orange added per well added to a 96-well PCR plate. Each experiment was performed in duplicate. Temperature gradients from 25 to 95 °C (increasing at a rate of 1 °C per minute) were completed with readings every minute on a CFX96 Real-Time PCR machine (Bio-Rad). Melting temperatures were determined as the minimum of the negative first derivative plots with CFX Maestro software (Bio-Rad).

solubility = type: physicochemical
[3] = read-out: MG assay IC50 (Biochemical IC50)

- IC50 (human NUDT5; read-out: MG assay IC50): > 100000 nM
SMILES: O=c1cc(N2CCOCC2)oc2c(-c3ccccc3)cccc12 [LY294002, reference compound]

- IC50 (human NUDT5; read-out: MG assay IC50): 580 nM
SMILES: Cc1cccc(-c2nnc(Cn3cnc4c3c(=O)n(C)c(=O)n4C)o2)c1 [TH1167]
- NUDT5 stabilization in intact cells [1]: did not show sufficient target engagement
- NUDT5 stabilization in cell lysates [2]: did not show sufficient target engagement

- Tm (purified NUDT5): 79 °C
- ΔTm at 20 µM (purified NUDT5): 5 °C
- NUDT5 stabilization in intact cells [1]: showed activity by CETSA in intact cells
- solubility (solubility): very poor solubility
- MG assay potency compared with TH1713 (human NUDT5): equipotent with TH1713
- IC50 (human NUDT5; [3]): 70 nM
SMILES: Cn1c(=O)c2c(ncn2Cc2nnc(-c3ccc(Cl)c(Cl)c3)o2)n(C)c1=O [TH1533]

- Tm (purified NUDT5): 79 °C
- ΔTm at 20 µM (purified NUDT5): 5 °C
- solubility (solubility): very poor solubility
- fold greater potency over TH1167 (human NUDT5; MG assay): more than 8 fold
- IC50 (human NUDT5; [3]): 70 nM
SMILES: Cc1cccc(-c2nnc(Cn3c(N(C)C)nc4c3c(=O)n(C)c(=O)n4C)o2)c1 [TH1713]
- NUDT5 stabilization in intact cells [1]: only TH1533 showed activity by CETSA in intact cells

- IC50 (human NUDT5; read-out: MG assay IC50): > 100000 nM
SMILES: COc1ccc2c(c[n+](C)c3c4cc5c(cc4ccc23)OCO5)c1OC [chelerythrine, reference compound]

- IC50 (human NUDT5; read-out: MG assay IC50): > 100000 nM
SMILES: O=c1cc(-c2ccccc2)oc2ccccc12 [flavone, reference compound]

- IC50 (human NUDT5; read-out: MG assay IC50): > 100000 nM
SMILES: O=C(O)/C=C/c1ccc(O)cc1 [p-coumaric acid, reference compound]
